These results are taken from ChEMBL document CHEMBL4725308, “MK-5204: An orally active β-1,3-glucan synthesis inhibitor” (Bioorg Med Chem Lett, 2020).

Data set [1] has as its system Candida albicans. The data set can be described thus: Antifungal activity against Candida albicans MY1055 infected in DBA/2 mouse model assessed as log change in colony forming units in kidney at 6.5 mg/kg, po bid for 2 days and measured after 4 days by TOKA. Type of data set: functional. To be noted: time 2 day.
A short description of data set [2]: Oral bioavailability in mouse. Type of data set: ADME, organism-based. The note with it: in vivo.
Data set [3] concerns Candida albicans. The experiment in a line: Antifungal activity against Candida albicans MY1055 infected in DBA mouse model assessed as log change in colony forming units in kidney at 12.5 mg/kg, po bid for 2 days and measured after 4 days by TOKA. Type of data set: functional. The note with it: time 2 day.
Data set [4] can be described thus: Inhibition of beta-1,3-glucan synthase in Candida albicans MY1055 microsomal membrane using UDP-[3H]-glucose as substrate incubated for 2 hrs in presence of UTP by radioactivity-based assay. The format is cell membranes.
The test system of a further data set is Aspergillus fumigatus. The experiment in a line: Antifungal activity against Aspergillus fumigatus MF5668 assessed as fungal growth inhibition measured after 24 hrs by liquid microdilution method. The format is functional. To be noted: read-out: MEC. In general terms: Broth dilution looks for growth in wells or tubes with falling amounts of substance.
For data set [5], the system named is Candida albicans. The data set can be described thus: Antifungal activity against Candida albicans MY1055 assessed as fungal growth inhibition measured after 24 hrs in presence of mouse serum by liquid microdilution method. Type of data set: functional.
For data set [6], the system named is Candida albicans. The experiment in a line: Antifungal activity against Candida albicans MY1055 assessed as fungal growth inhibition measured after 24 hrs by liquid microdilution method. The format is functional.
For data set [7], the system named is Candida albicans. The data set can be described thus: Antifungal activity against Candida albicans MY1055 infected in DBA/2 mouse model assessed as log change in colony forming units in kidney at 25 mg/kg, po bid for 2 days and measured after 4 days by TOKA. Type of data set: functional. The note with it: time 2 day.

Each structure is given as a SMILES string. Values after ≈ are worked out from the molar mass of the structure shown.

Usually bioavailability stands for dose-corrected exposure relative to a reference, in per cent. A word on the IC50: it is the concentration that inhibits the measured activity by half. The term MIC denotes the lowest concentration that inhibits growth of the organism.

Consider `CCNC(=O)c1ncnn1[C@@H]1C[C@@]23COC[C@@](C)([C@@H]2CC[C@H]2C3=CC[C@@]3(C)[C@H](C(=O)O)[C@@](C)([C@H](C)C(C)C)CC[C@]23C)[C@H]1OC[C@](C)(N)C(C)C`, for which the Activity is given as -0.8 log CFU in the data set with Candida albicans [1], -1.4 log CFU in the data set with Candida albicans [3] and -2.8 log CFU in the data set on Candida albicans [7]. The compound also returned a bioavailability in data set [2] of 13%. Also, the IC50 in data set [4] amounted to 0.008 mg/L. Besides, in the data set on Aspergillus fumigatus, the minimal effective concentration was < 0.03 µg/mL. The MIC with Candida albicans [5] was 16 mg/L; with Candida albicans [6], 0.25 mg/L (≈ 0.352 µM).
Consider `CNC(=O)c1ncnn1[C@@H]1C[C@@]23COC[C@@](C)([C@@H]2CC[C@H]2C3=CC[C@@]3(C)[C@H](C(=O)O)[C@@](C)([C@H](C)C(C)C)CC[C@]23C)[C@H]1OC[C@](C)(N)C(C)C`, for which the Activity was -0.6 log CFU in the data set on Candida albicans [1], -1.6 log CFU with Candida albicans [3] and -2.6 log CFU in the data set on Candida albicans [7]. This compound also registered a bioavailability in data set [2] of 5%. For the same compound, the 50% inhibitory concentration (IC50) in data set [4] came out at 0.004 mg/L. Moreover, the minimal effective concentration with Aspergillus fumigatus was < 0.03 µg/mL. Besides, the minimum inhibitory concentration (MIC) in the data set on Candida albicans [5] was 8 mg/L; in the data set with Candida albicans [6] it was 0.125 mg/L (≈ 0.18 µM).
Consider `CC(C)[C@@H](C)[C@@]1(C)CC[C@]2(C)[C@H]3CC[C@@H]4[C@@]5(COC[C@]4(C)[C@@H](OC[C@](C)(N)C(C)C)[C@H](n4ncnc4C(=O)NC4CC4)C5)C3=CC[C@@]2(C)[C@@H]1C(=O)O`, for which the Activity is listed as -0.8 log CFU with Candida albicans [1], -0.9 log CFU in the data set on Candida albicans [3] and -2.1 log CFU in the data set with Candida albicans [7]. The compound further registered a bioavailability in data set [2] of 30%. Also, in data set [4], the IC50 is 0.005 mg/L. Also, in the data set with Aspergillus fumigatus, the minimal effective concentration is < 0.03 µg/mL. Further, the MIC with Candida albicans [5] came to 16 mg/L; in the data set with Candida albicans [6] it was 0.25 mg/L (≈ 0.346 µM).
As for `CN[C@@](C)(CO[C@H]1[C@H](n2ncnc2C(N)=O)C[C@@]23COC[C@@]1(C)[C@@H]2CC[C@H]1C3=CC[C@@]2(C)[C@H](C(=O)O)[C@@](C)([C@H](C)C(C)C)CC[C@]12C)C(C)C`, the Activity is given as -0.4 log CFU in the data set on Candida albicans [1], -0.5 log CFU with Candida albicans [3] and -1.2 log CFU in the data set on Candida albicans [7]. Further, in data set [2], the bioavailability turned out to be 5%. Further, in data set [4], the IC50 came out at 0.005 mg/L. Further, the minimal effective concentration in the data set on Aspergillus fumigatus was < 0.03 µg/mL. Moreover, the MIC came out at 8 mg/L with Candida albicans [5] and 0.25 mg/L (≈ 0.359 µM) with Candida albicans [6].
With `CC(C)[C@@H](C)[C@@]1(C)CC[C@]2(C)[C@H]3CC[C@@H]4[C@@]5(COC[C@]4(C)[C@@H](OC[C@](C)(N)C(C)C)[C@H](n4ncnc4C(N)=O)C5)C3=CC[C@@]2(C)[C@@H]1C(=O)O`, the Activity in the data set on Candida albicans [1] is recorded as -0.9 log CFU; in the data set on Candida albicans [3], -0.2 log CFU; in the data set with Candida albicans [7], -2.5 log CFU. This compound had a bioavailability in data set [2] of 7%. Also, the 50% inhibitory concentration (IC50) in data set [4] amounted to 0.005 mg/L. For the same compound, in the data set on Aspergillus fumigatus, the minimal effective concentration was < 0.03 µg/mL. Also, the results for the MIC in the data set on Candida albicans [5] and with Candida albicans [6] were 2 mg/L and < 0.03 mg/L, respectively.
